In patent US7858665B2, “Drugs for chronic pain” (Nicox S.A., priority 2002, dated 2010):

Experiments:
[1] = tested on: chronic constriction injury of the rat sciatic nerve; test: Neuropathic pain model: chronic constriction injury of the rat sciatic nerve, vocalization threshold to paw pressure; type: in vivo; settings: for Vocalization threshold to pressure in the injured paw (VTPP): 175 μmoles/kg, ip, day 14 post lesion
Description: We have tested the antinoceptive effects of compound of formula (XVA, Example 1), hereinafter NO-gabapentin, in the model of neuropathic pain constituted by the chronic constriction injury of the rat sciatic nerve. The parent compound gabapentin has been used as reference drug.
The unilateral peripheal mononeuropathy was obtained according to the method described by Bennet G J and Xie Y K, Pain (33) 1988: 87-107. Sample populations ranging from 8 to 12 rats (SD males weighting 250-300 g) for condition were used. The antinoceptive effect of the drugs was determined by measuring the vocalization threshold (VTPP) elicited by paw pressure both at the injured and at the controlateral side. The test was performed at day 14 post lesion. All compounds were tested for acute antinoceptive effects. Acute effects were determined within 60 min following a single intraperitoneal (i.p.) injection of the drugs prior to the test.
Each group of the rats received gabapentin at the dose of 30 mg/kg (175 μmoles/kg), or an equimolar dose of NO-gabapentin (175 μmoles/kg), or the same volume of vehicle (Control group). The drugs were dissolved (20 mg/mL) in vehicle containing saline: DMSO: Castor oil (68:8:24).

[2] = tested on: male Swiss mice; test: Paw licking test (formalin injected in paw); type: in vivo; settings: for paw licking Phase I: phase I 0-15 minutes after formalin; for paw licking Phase I / paw licking Phase II: 3 mg/kg oral (gabapentin 17.5 μm/kg, NO-gabapentin 8.5 μm/kg), 1 h before formalin; for paw licking Phase II: phase II 15-30 minutes after formalin
Method: Three groups of male Swiss mice (20-25 g, Charles River), 10 animals each, received by oral administration as in Example F1 gabapentin in an amount of 3 mg/kg (17.5 μm/kg) or the compound of formula (XVA, Example 1), hereinafter NO-gabapentin, in an amount of 3 mg/kg (8.5 μm/kg) dissolved in saline solution. The control group received an equal volume of saline solution. One hour after administration of the compound solutions, the mice were injected with formalin in the paw (10 μl).
The formalin injection induced a biphasic reaction. In first phase (phase I, 0-15 minutes) an acute inflammation was observed; in the second phase (phase II, 15-30 minutes) a release of chemical mediators occurred as in neurophatic pain. Within 30 minutes subsequent to formalin injection, in each animal the time in seconds in which the animal licked its paw was recorded. Analysis was carried out in blind.
The results reported in Table 2 are expressed as the entire time in seconds in which paw licking in animals during the first and second phase as defined above was observed.

[3] = tested on: male Swiss mice; test: Writhing test (acetic acid-induced abdominal contractions); type: in vivo; settings: for Contractions number: 1 h before i.p. acetic acid, total contractions within 15 minutes
Method: Nine groups of male Swiss mice (20-25 g, Charles River), 10 animals each, received by oral administration through gastric tube (gavage) gabapentin in an amount of from 1 to 10 mg/kg or the compound of the invention (XVA, Example 1), hereinafter NO-gabapentin, in an amount of from 1 to 10 mg/kg dissolved in saline solution. One hour after administration of the compound solutions, through intraperitoneal injection the mice received a glacial acetic acid solution (0.5 ml, 0.6%). Within 15 minutes subsequent to the administration of acetic acid, in every animal the number of abdominal contractions was counted. Analysis was carried out in blind.
The results reported in Table 1 are given as the number of total contractions within the observation time (15 minutes).

[4] = tested on: human umbilical vein cells; test: NO generation by NO-donors in endothelial cells (chemiluminescence); type: cell-based; settings: incubation of 100 μl nicorandil, 5 minutes
Method: Plated human umbilical vein cells with density of 10^3 cells/well, have been incubated 5 minutes with NO-donor scalar concentrations (1-100 μg/ml). Incubation medium (physiological solvent, i.e. Tyrode) has been then analysed to ascertain the ability to generate NO by means of: 1) nitric oxide detection by chemiluminescence, As far as chemiluminescence analysis is concerned, a 100 μl aliquot has been injected into reaction chamber of an chemiluminescence analyzer containing glacial acetic acid and potassium iodide. […] As usual in devices measuring chemiluminescence, the produced luminescence is directly proportional to the generated NO levels and can be measured by means of the suitable photomultiplier unity of an chemiluminescence analyzer. The photomultiplier turns incident light into electric voltage, that then is quantitatively registered. Referring to a calibration curve, obtained with scalar nitrite concentrations, it has been possible to quantitatively evaluate the concentration of the generated NO. For example, from incubation of […], an amount of about 10 μM NO was generated.

[5] = tested on: washed human platelets; test: NO generation by NO-donors in platelets (chemiluminescence); type: cell-based; settings: incubation of 100 μM, 5 minutes
Method: Washed human platelets have been used, obtained as described by Radomski et al., (Br. J. Pharmacol. 92, 639-1987). Amounts of 0.4 ml were incubated 5 minutes with scalar NO-donor concentrations (1-100 μg/ml). […] As to the chemiluminescence assay, also in this case on the basis of a calibration curve plotted with nitrite scalar concentrations, it has been possible to quantitatively define the concentration of the generated NO. For example, after incubation of 100 μM nicorandil, an amount of 35 μM of NO was generated.

SMILES | Vocalization threshold to pressure in the injured paw (VTPP) ([1]; 0 min post-dosing) [grams] | Vocalization threshold to pressure in the injured paw (VTPP) ([1]; 5 min post-dosing) [grams] | Vocalization threshold to pressure in the injured paw (VTPP) ([1]; 10 min post-dosing) [grams] | Vocalization threshold to pressure in the injured paw (VTPP) ([1]; 20 min post-dosing) [grams] | Vocalization threshold to pressure in the injured paw (VTPP) ([1]; 40 min post-dosing) [grams] | Vocalization threshold to pressure in the injured paw (VTPP) ([1]; 60 min post-dosing) [grams] | paw licking Phase I [2] [s] | paw licking Phase II [2] [s] | Contractions number ([3]; dose 1 mg/kg oral) | Contractions number ([3]; dose 3 mg/kg oral) | Contractions number ([3]; dose 10 mg/kg oral) | antinoceptive efficacy compared with gabapentin ([1]; equimolar dose 175 μmoles/kg i.p.) | activity in inhibiting paw licking in first phase, compared with gabapentin ([2]; phase I, molar dose corresponding to 50% of gabapentin) | effectiveness in second phase, compared with gabapentin ([2]; phase II, molar dose corresponding to 50% of gabapentin) | activity in inhibiting abdominal contraction amount, compared with gabapentin ([3]; 1 to 10 mg/kg oral) | amount of NO generated [4] | amount of NO generated [5] [µM]
NCC1(CC(=O)O)CCCCC1 [Gabapentin, 1-(aminomethyl)cyclohexaneacetic acid, reference compound] | 160 ± 10 | 165 ± 23 | 191 ± 29 | 250 ± 24 | 266 ± 26 | 250 ± 38 | 85 | 30 | 32 | 22 | 27 |  |  |  |  |  | 
O=C(O)CC1(CNC(=O)c2ccc(CO[N+](=O)[O-])cc2)CCCCC1 [NO-gabapentin, 1-[4-(nitrooxymethyl)benzoylaminomethyl]-cyclohexaneacetic acid] | 153 ± 10 | 187 ± 10 | 307 ± 14 | 325 ± 08 | 390 ± 11 | 382 ± 09 | 50 | 60 | 24 | 15 | 15 | more efficacious than gabapentin | more active than the starting drug | less effective | more active than precursor drug |  | 
O=C(NCCO[N+](=O)[O-])c1cccnc1 [nicorandil] |  |  |  |  |  |  |  |  |  |  |  |  |  |  |  | about 10 μM | 35
